In ChEMBL document CHEMBL3992484, “Synthetic α-Hydroxytropolones as Inhibitors of HIV Reverse Transcriptase Ribonuclease H Activity” (Medchemcomm, 2016):
pEC50, pIC50: −log10 of the molar value.

Legend:
[1] = Inhibition of HIV-1 RT-RNase H using 18-nucleotide 3'-fluorescein-labeled RNA annealed to a complementary 18-nucleotide 5'-dabsyl-labeled DNA as substrate measured after 10 mins by FRET assay; parameters: species or system Human immunodeficiency virus 1
[2] = test system: Human immunodeficiency virus 1; assay: Stabilization of HIV-1 RT-RNase H assessed as change in melting temperature at 20 uM by sypro-orange dye-based differential scanning fluorimetric analysis
[3] = test system: Human immunodeficiency virus 1; assay: Antiviral activity against HIV1 RF infected in human CEM-SS cells assessed as protection against viral-induced cytopathic effect after 7 days by XTT assay; type: functional, cell-based; conditions: Human immunodeficiency virus 1, RF, 168 h
[4] = Cytotoxicity against human CEM-SS cells after 7 days by XTT assay; type: cell-based

Row | SMILES | pIC50 [1] | ΔTm [2] [°C] | pEC50 [3] | CC50 at 168 h [4] [µM]
1 | COC(=O)c1c(C)cc(O)c(=O)c(O)c1Br | 6.89 | 2.48 | 5.66 | 7.6
2 | CC(C)c1ccc(O)c(=O)c(O)c1 |  | 2.3 |  | 
3 | CC(=O)c1cc(O)c(=O)c(O)cc1C | 6.54 | 2.9 | 5.16 | 20
4 | COC(=O)c1cc(O)c(=O)c(O)cc1C | 6.80 | 2.7 | 5.12 | 
5 | CCOC(=O)c1cc(O)c(=O)c(O)cc1C | 6.60 | 2.4 | 5.30 | 
